These results are taken from article PMC11205445, “Babesia duncani Pyruvate Kinase Inhibitor Screening and Identification of Key Active Amino Acid Residues” (Microorganisms, 2024).

As usually defined, the Vmax is the top rate of the reaction or transport when substrate is in excess. By IC50 is commonly meant the concentration at which inhibition is half-maximal. The CC50 is the concentration giving 50% cytotoxicity. One may read the Km as the substrate concentration at which the rate is half of its maximum. Usually kcat stands for the maximal rate divided by the concentration of active sites. What is called kcat/Km is the turnover number divided by the Michaelis constant.

In series [1] the target is T1, BdPyK I (Babesia duncani, UniProt A0AAD9PKI2). Nature of the series: Enzyme kinetics of BdPyK I with gradient concentrations of substrates PEP and ADP. The following applies: substrate of BdPyK I.
T1 sequence (A0AAD9PKI2 entry or part of it): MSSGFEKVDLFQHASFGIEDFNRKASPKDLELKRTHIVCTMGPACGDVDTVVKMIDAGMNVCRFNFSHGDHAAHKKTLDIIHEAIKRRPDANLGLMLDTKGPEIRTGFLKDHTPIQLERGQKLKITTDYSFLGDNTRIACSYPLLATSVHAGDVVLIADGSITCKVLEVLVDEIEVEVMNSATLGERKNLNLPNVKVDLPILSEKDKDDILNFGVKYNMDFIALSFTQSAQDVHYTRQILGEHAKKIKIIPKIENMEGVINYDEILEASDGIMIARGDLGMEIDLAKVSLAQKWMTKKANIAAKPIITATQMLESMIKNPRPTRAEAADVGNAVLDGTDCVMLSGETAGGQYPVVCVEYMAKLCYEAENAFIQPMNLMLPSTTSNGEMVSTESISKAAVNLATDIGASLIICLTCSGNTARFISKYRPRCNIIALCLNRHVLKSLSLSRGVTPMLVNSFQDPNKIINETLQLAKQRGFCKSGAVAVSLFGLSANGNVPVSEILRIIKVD
Description: (§2) To conduct standard enzyme kinetics analysis, we employed a spectrophotometer (BioTek, located in Winooski, VT, USA) to monitor the degradation of NADH at 340 nm wavelength. At 37 °C, the oxidation of 1 micromole of NADH per minute was defined as one unit of PyK activity. Samples were measured continuously at 2, 7, 12, 17, 22, and 27 min. In order to investigate the influence of pH, Mg^2+, and K^+ concentrations on activity, tests were conducted within the pH range of 4.0–8.0 and Mg^2+ and K^+ concentrations ranging from 0 to 200 mM, including concentrations of 0, 25, 50, 75, 100, 125, 150, 175, and 200 mM. A reaction system with a total volume of 200 mL was designed, comprising 50 mM Tris-HCl buffer (pH 7.5), 50 mM MgCl2, 20 mM KCl, 3 mM PEP (MilliporeSigma), 3 mM ADP (MilliporeSigma), 0.5 mM NADH (MilliporeSigma), 100 ng recombinant lactate dehydrogenase (rBdLDH), and 100 ng BdPyK I. Enzyme activity was assessed by calculating the initial rate of NADH degradation within the first 5 min and determining the relative percentage activity.
(§3) Subsequently, Michaelis–Menten equations for the reactants PEP and ADP were formulated based on gradient concentrations, and corresponding enzyme kinetics curves were delineated.
Series [2] concerns the target T1, BdPyK I. Kind of series: BdPyK I enzyme inhibition, indirect coupled lactate dehydrogenase assay (NADH at 340 nm). The format is biochemical. From the text:
This study aimed to investigate the effects of six small-molecule compounds on the enzyme activity of BdPyK I. These selected compounds, including PKM2 inhibitor, shikonin, tannic acid, apigenin, pioglitazone, and rosiglitazone, were initially dissolved in their respective stock concentrations using dimethyl sulfoxide (DMSO) or absolute ethanol as solvents. Subsequently, an indirect coupling lactate dehydrogenase assay was employed to evaluate the influence of these compounds on BdPyK I enzyme activity.
To conduct standard enzyme kinetics analysis, we employed a spectrophotometer (BioTek, located in Winooski, VT, USA) to monitor the degradation of NADH at 340 nm wavelength. At 37 °C, the oxidation of 1 micromole of NADH per minute was defined as one unit of PyK activity. Samples were measured continuously at 2, 7, 12, 17, 22, and 27 min. In order to investigate the influence of pH, Mg^2+, and K^+ concentrations on activity, tests were conducted within the pH range of 4.0–8.0 and Mg^2+ and K^+ concentrations ranging from 0 to 200 mM, including concentrations of 0, 25, 50, 75, 100, 125, 150, 175, and 200 mM. A reaction system with a total volume of […] was designed, comprising 50 mM Tris-HCl buffer (pH 7.5), 50 mM MgCl2, 20 mM KCl, 3 mM PEP (MilliporeSigma), 3 mM ADP (MilliporeSigma), 0.5 mM NADH (MilliporeSigma), 100 ng recombinant lactate dehydrogenase (rBdLDH), and 100 ng BdPyK I. Enzyme activity was assessed by calculating the initial rate of NADH degradation within the first 5 min and determining the relative percentage activity.
Under the conditions of 3 mM PEP and 3 mM ADP, the influence of six different small-molecule compounds on the enzymatic activity of BdPyK I was investigated across varying concentrations (0–500 μM). […] The group with the addition of DMSO was designated as the negative control group. The inhibition rate was calculated using the following formula: Inhibitor (%) = (ΔAcontrol − ΔAsample)/ΔAcontrol × 100%. All experiments were independently repeated three times to enhance the reliability and accuracy of the results. Following completion of the experiments, enzyme activity data were analyzed using GraphPad Prism 8.0 software. IC50 values for each small-molecule compound were calculated using software analysis functions. The IC50 value represents the compound concentration required to decrease enzyme activity by 50% and serves as a fundamental parameter for evaluating the inhibitory effect of compounds on enzyme activity.

The next series has as its system B. duncani. Kind of series: In vitro growth inhibition assay of Babesia duncani (SYBR Green, 72 h). The following applies: for parasite growth inhibition: at approximately 40 μM. The format is cell-based.
Series [3] relates to vero cells. Kind of series: Cytotoxicity assay, vero cells. The series is classed as cell-based. The following applies: CC50 Vero versus IC50 B. duncani. The text has this: (§1) The IC50 value represents a standard metric indicating the concentration of a drug or compound necessary to impede a biological process or inhibit cell growth. In this experiment, the IC50 values of six different compounds against B. duncani in vitro were compared with their IC50 values for BdPyK I activity. […] To contextualize these findings, the CC50 values for vero cells and HFF cells from cytotoxicity assay data were considered collectively. […] Considering the activity, selectivity, and potential toxicity, this study conducted a comprehensive evaluation of the selectivity index (SI).

Series [4] deals with HFF cells. Kind of series: Cytotoxicity assay, HFF cells. Conditions: CC50 HFF versus IC50 B. duncani. The series is classed as cell-based.
Description: as §1

In series [5] the test system is vero cells. Also noted: method as in PMID 34603237. The following applies: cited from earlier work.
The test system of series [6] is HFF cells. More on the design: method as in PMID 34603237. Conditions: cited from earlier work.
Details of series [7]: method as in PMID 34603237. Conditions: in vivo experiments with Babesia rodents; cited from earlier work.
A further series concerns C=C(OP(=O)(O)O)C(=O)O. Kind of series: purified protein, by the assay type. Conditions: other: substrate of BdPyK I, gradient concentration; pH 7.5; 37.0 °C.
Series [8] relates to Nc1ncnc2c1ncn2[C@@H]1O[C@H](COP(=O)(O)OP(=O)(O)O)[C@@H](O)[C@H]1O. Nature of the series: purified protein, by the assay type. The following applies: other: substrate of BdPyK I, gradient concentration; pH 7.5; 37.0 °C.
Description: as §2, §3
A further series concerns the target BdLDH. Kind of series: Effect of compounds on BdLDH enzyme activity (counter-screen of the coupled assay). The format is biochemical, Babesia duncani. The following applies: BdLDH activity evaluated separately. In general terms: Counterscreens check selectivity or assay interference.
[9] abbreviates: Babesia duncani, in vitro culture, 72 h, Table 3, read-out: IC50 B. duncani.
The mark [10] stands for this setting: 3 mM PEP and 3 mM ADP, compound 0–500 μM, read-out: IC50 PyK I.
[11] abbreviates: Babesia duncani, 72 h incubation, SYBR Green, read-out: IC50 of B. duncani growth inhibition (Figure 10).

Several values for one entry are separate records, joined by “and”; a condition that tells them apart may be missing. Identical values can stand only once. Like-named read-outs stand apart in the source and are kept apart here.

Description for C=C(OP(=O)(O)O)C(=O)O: as §2, §3

On BdPyK I [1], `Nc1ncnc2c1ncn2[C@@H]1O[C@H](COP(=O)(O)OP(=O)(O)O)[C@@H](O)[C@H]1O` [ADP] showed a Kcat of 16 S^−1. In addition, on BdPyK I [1] (gradient concentration), the Vmax is 0.3234 ± 0.018 mM/min.
For the compound `O=c1cc(-c2ccc(O)cc2)oc2cc(O)cc(O)c12` [Apigenin], the IC50 was 7.49 µM against BdPyK I [2] and 2.81 ± 1.06 µM in the series with B. duncani (setting [9]). Further, the “Selectivity Index (SI) Vero” value in the series with vero cells [3] came to 20.64. Also, the “Selectivity Index (SI) HFF” value in the series on HFF cells [4] is reported as 12.8. For the same compound, the CC50 in the series on vero cells [5] is 58.2 ± 2.67 µM; with HFF cells [6] it was 36 ± 2.95 µM. In series [7], the “toxicity in vivo” value is “high toxicity”.
On to `CC1=C(CSC(=S)N2CCCCC2)C(=O)c2ccccc2C1=O` [PKM2 inhibitor], for which the IC50 at BdPyK I [2] (setting [10]) stood at 10.9 µM; in the series on B. duncani (setting [9]), 0.16 ± 0.08 µM. Also, the growth inhibition rate in the series on B. duncani (at approximately 2 μM, 72 h) is reported as 85%. The “Selectivity Index (SI) Vero” value in the series with vero cells [3] came out at 243. The “Selectivity Index (SI) HFF” value in the series with HFF cells [4] stood at 116. The CC50 with vero cells [5] was 39.3 ± 8.32 µM; in the series with HFF cells [6], 18.7 ± 1.99 µM.
On to `CCc1ccc(CCOc2ccc(CC3SC(=O)NC3=O)cc2)nc1` (stereo not shown) [Pioglitazone], for which the IC50 turned out to be 27.5 µM at BdPyK I [2] (setting [10]) and 15.4 µM in the series on B. duncani (setting [11]). Moreover, the parasite growth inhibition with B. duncani (72 h) was found to be 80%.
On the same counts, the results for `CN(CCOc1ccc(CC2SC(=O)NC2=O)cc1)c1ccccn1` (stereo not shown) [Rosiglitazone] are 7.36 µM, 20.9 µM and 80%.
In the case of `CC(C)=CC[C@@H](O)C1=CC(=O)c2c(O)ccc(O)c2C1=O` [Shikonin], the IC50 on BdPyK I [2] (setting [10]) came out at 16.5 µM; in the series on B. duncani (setting [9]), 3.68 ± 0.48 µM. Further, the “Selectivity Index (SI) Vero” value in the series with vero cells [3] amounted to 0.64. Further, in the series with HFF cells [4], the “Selectivity Index (SI) HFF” value is 0.17. The figures for the CC50 with vero cells [5] and with HFF cells [6] were 2.34 ± 0.29 µM and 0.63 ± 0.32 µM, respectively.
For BdPyK I (Babesia duncani), in the series with C=C(OP(=O)(O)O)C(=O)O, the Km was 450 ± 104 µM, the Vmax turned out to be 370 µM/min, the kcat is 18.3 s⁻¹ and the kcat/Km stood at 40100 M⁻¹ s⁻¹. In addition, the Km in series [8] is 310 µM and 313.6 ± 24 µM.
With Tannic acid, the IC50 turned out to be 0.03 µM on BdPyK I [2] (setting [10]); 0.0332 µM at BdPyK I [2] (3 mM PEP and 3 mM ADP, read-out: IC50 on BdPyK I (Figure 9)); 0.03 µM at BdPyK I [2] (Table 3, read-out: IC50 PyK I Activity); 1.32 µM on BdLDH; 1.71 ± 0.33 µM in the series on B. duncani (in vitro culture, 72 h, Table 3, read-out: IC50 B. duncani). Besides, the CC50 in the series with vero cells [5] is 53 ± 2.37 µM; in the series on HFF cells [6], 36.5 ± 3.88 µM.
